In this experiment the target is T1, human TLR8 (Homo sapiens, UniProt Q9NR97).
T1 construct: host or cells: HEK293 (HEK-Blue hTLR8)
T1 sequence (Q9NR97 27-1041): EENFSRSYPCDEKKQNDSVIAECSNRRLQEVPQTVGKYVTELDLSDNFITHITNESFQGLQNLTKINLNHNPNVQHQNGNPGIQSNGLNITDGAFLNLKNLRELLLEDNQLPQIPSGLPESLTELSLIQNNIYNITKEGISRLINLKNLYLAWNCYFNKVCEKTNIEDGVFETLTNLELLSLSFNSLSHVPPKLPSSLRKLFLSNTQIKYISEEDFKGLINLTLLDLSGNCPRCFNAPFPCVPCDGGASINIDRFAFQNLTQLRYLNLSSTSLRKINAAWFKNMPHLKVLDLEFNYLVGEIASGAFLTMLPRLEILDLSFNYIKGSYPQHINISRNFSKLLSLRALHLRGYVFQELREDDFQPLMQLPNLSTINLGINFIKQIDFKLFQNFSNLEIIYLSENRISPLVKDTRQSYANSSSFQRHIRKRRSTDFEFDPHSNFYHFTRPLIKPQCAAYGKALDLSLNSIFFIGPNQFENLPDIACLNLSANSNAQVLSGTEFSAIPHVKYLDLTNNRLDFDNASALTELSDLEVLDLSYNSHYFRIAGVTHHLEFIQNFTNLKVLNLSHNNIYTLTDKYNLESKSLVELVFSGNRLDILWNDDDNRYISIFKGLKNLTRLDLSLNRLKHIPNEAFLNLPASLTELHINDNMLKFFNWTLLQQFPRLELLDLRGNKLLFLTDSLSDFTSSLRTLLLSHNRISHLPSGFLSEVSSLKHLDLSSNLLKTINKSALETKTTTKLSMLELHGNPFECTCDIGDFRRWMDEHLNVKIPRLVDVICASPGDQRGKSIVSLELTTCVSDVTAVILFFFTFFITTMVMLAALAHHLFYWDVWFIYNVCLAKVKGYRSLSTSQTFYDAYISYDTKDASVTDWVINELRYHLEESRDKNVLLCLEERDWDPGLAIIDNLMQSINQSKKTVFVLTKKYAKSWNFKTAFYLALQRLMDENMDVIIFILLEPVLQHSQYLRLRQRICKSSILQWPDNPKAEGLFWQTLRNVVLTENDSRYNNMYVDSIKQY
The experiment can be described thus: HEK293-Blue-hTLR-8 cells assay (SEAP reporter, R848 stimulation). It is filed as cell-based. The following applies: HEK293-Blue-hTLR8 cells, R848, 20 hrs; read-out: HEK/hTLR8 IC50. The procedure, abridged: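 Antagonism read as reduced R848-induced SEAP reporter secretion, detected by QUANTI-Blue absorbance at 620–655 nm after 2 h. Reporter cells were exposed to compound dilutions in DMEM/10% FBS, 1% DMSO, for 20 h at 37° C.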
In the case of `C[C@@H]1CN(c2ccc(C#N)c3ncccc23)C[C@H](CN2CCN(c3cccc(N4CC(N)C(F)C4)n3)CC2)O1` (stereo partly drawn) [Example 40, 5-[(2S,6R)-2-[[4-[6-(3-amino-4-fluoro-pyrrolidin-1-yl)-2-pyridyl]piperazin-1-yl]methyl]-6-methyl-morpholin-4-yl]quinoline-8-carbonitrile], the IC50 is 17 nM. In the case of `C[C@@H]1CN(c2ccc(C#N)c3ncccc23)C[C@H](CN2CCN(c3cccc(N4CCNCC(O)C4)n3)CC2)O1` (stereo partly drawn) [Example 41, 5-[(2S,6R)-2-[[4-[6-(6-hydroxy-1,4-diazepan-1-yl)-2-pyridyl]piperazin-1-yl]methyl]-6-methyl-morpholin-4-yl]quinoline-8-carbonitrile], the IC50 turned out to be 32 nM. The result for `CO[C@H]1CN(c2cccc(N3CCN(C[C@H]4CN(c5ccc(C#N)c6ncccc56)C[C@@H](C)O4)CC3)n2)C[C@H]1N` [Example 42, 5-[(2S,6R)-2-[[4-[6-[(3R,4S)-3-amino-4-methoxy-pyrrolidin-1-yl]-2-pyridyl]piperazin-1-yl]methyl]-6-methyl-morpholin-4-yl]quinoline-8-carbonitrile] reads 13 nM; that for `COC1CN(c2ccc(N3CCN(C[C@H]4CN(c5ccc(C#N)c6ncccc56)C[C@@H](C)O4)CC3)cn2)CC1N` (stereo partly drawn) [Example 43, 5-[(2S,6R)-2-[[4-[6-(3-amino-4-methoxy-pyrrolidin-1-yl)-3-pyridyl]piperazin-1-yl]methyl]-6-methyl-morpholin-4-yl]quinoline-8-carbonitrile], 11 nM; that for `C[C@@H]1CN(c2ccc(C#N)c3ncccc23)C[C@H](CN2CCN(c3ccc(N4CC(N)C(F)C4)nc3)CC2)O1` (stereo partly drawn) [Example 44, 5-[(2S,6R)-2-[[4-[6-(3-amino-4-fluoro-pyrrolidin-1-yl)-3-pyridyl]piperazin-1-yl]methyl]-6-methyl-morpholin-4-yl]quinoline-8-carbonitrile], 10 nM.

Turning to `C[C@@H]1CN(c2ccc(C#N)c3ncccc23)C[C@H](CN2CCN(c3nc(N4CCNCC4)ncc3F)CC2)O1` [Example 45, 5-[(2S,6R)-2-[[4-(5-fluoro-2-piperazin-1-yl-pyrimidin-4-yl)piperazin-1-yl]methyl]-6-methyl-morpholin-4-yl]quinoline-8-carbonitrile], the IC50 was 4 nM. As for `Cc1nc(N2CCNCC2)nc(N2CCN(C[C@H]3CN(c4ccc(C#N)c5ncccc45)C[C@@H](C)O3)CC2)c1C` [Example 46, 5-[(2S,6R)-2-[[4-(5,6-dimethyl-2-piperazin-1-yl-pyrimidin-4-yl)piperazin-1-yl]methyl]-6-methyl-morpholin-4-yl]quinoline-8-carbonitrile], the figure is 9 nM. As for `Cc1cc(N2CCN(C[C@H]3CN(c4ccc(C#N)c5ncccc45)C[C@@H](C)O3)CC2)nc(N2CCNCC2)n1` [Example 47, 5-[(2R,6S)-2-methyl-6-[[4-(6-methyl-2-piperazin-1-yl-pyrimidin-4-yl)piperazin-1-yl]methyl]morpholin-4-yl]quinoline-8-carbonitrile], the IC50 turned out to be 3 nM. Take `COc1cnc(N2CCNCC2)nc1N1CCN(C[C@H]2CN(c3ccc(C#N)c4ncccc34)C[C@@H](C)O2)CC1` [Example 48, 5-[(2S,6R)-2-[[4-(5-methoxy-2-piperazin-1-yl-pyrimidin-4-yl)piperazin-1-yl]methyl]-6-methyl-morpholin-4-yl]quinoline-8-carbonitrile]: the IC50 is 4 nM. Consider `C[C@@H]1CN(c2ccc(C#N)c3ncccc23)C[C@H](CN2CCN(c3nc(N4CCNCC4)nc4ccccc34)CC2)O1` [Example 49, 5-[(2R,6S)-2-methyl-6-[[4-(2-piperazin-1-ylquinazolin-4-yl)piperazin-1-yl]methyl]morpholin-4-yl]quinoline-8-carbonitrile], for which the IC50 is 10 nM. The result for `C[C@@H]1CN(c2ccc(C#N)c3ncccc23)C[C@H](CN2CCN(c3nc(N4CCNCC4)ncc3C#N)CC2)O1` [Example 50, 5-[(2S,6R)-2-[[4-(5-cyano-2-piperazin-1-yl-pyrimidin-4-yl)piperazin-1-yl]methyl]-6-methyl-morpholin-4-yl]quinoline-8-carbonitrile] reads 3 nM; that for `C[C@@H]1CN(c2ccc(C#N)c3ncccc23)C[C@H](CN2CCN(c3ncc(C#N)c(N4CCNCC4)n3)CC2)O1` [Example 51, 5-[(2S,6R)-2-[[4-(5-cyano-4-piperazin-1-yl-pyrimidin-2-yl)piperazin-1-yl]methyl]-6-methyl-morpholin-4-yl]quinoline-8-carbonitrile], 3 nM; that for `Cc1cc(N2CCN(C[C@H]3CN(c4ccc(C#N)c5ncccc45)C[C@@H](C)O3)CC2)nc(N2C[C@@H](N)[C@@H](F)C2)n1` [Example 55, 5-[(2S,6R)-2-[[4-[2-[(3R,4S)-3-amino-4-fluoro-pyrrolidin-1-yl]-6-methyl-pyrimidin-4-yl]piperazin-1-yl]methyl]-6-methyl-morpholin-4-yl]quinoline-8-carbonitrile], 3 nM. As for `Cc1cc(N2CCN(C[C@H]3CN(c4ccc(C#N)c5ncccc45)C[C@@H](C)O3)CC2)nc(N2CCOCC(N)C2)n1` (stereo partly drawn) [Example 56, 5-[(2S,6R)-2-[[4-[2-(6-amino-1,4-oxazepan-4-yl)-6-methyl-pyrimidin-4-yl]piperazin-1-yl]methyl]-6-methyl-morpholin-4-yl]quinoline-8-carbonitrile], the IC50 is 6 nM. With `Cc1cc(N2CCN(C[C@H]3CN(c4ccc(C#N)c5ncccc45)C[C@@H](C)O3)CC2)nc(NC2CNCC2C#N)n1` (stereo partly drawn) [Example 57, 5-[(2S,6R)-2-[[4-[2-[(4-cyanopyrrolidin-3-yl)amino]-6-methyl-pyrimidin-4-yl]piperazin-1-yl]methyl]-6-methyl-morpholin-4-yl]quinoline-8-carbonitrile], the IC50 turned out to be 4 nM.

As to `Cc1cc(N2CCN(C[C@H]3CN(c4ccc(C#N)c5ncccc45)C[C@@H](C)O3)CC2)nc(N2C[C@@H]3COC[C@@H](C2)N3)n1` [Example 58, 5-[(2R,6S)-2-methyl-6-[[4-[6-methyl-2-[(1R,5R)-3-oxa-7,9-diazabicyclo[3.3.1]nonan-7-yl]pyrimidin-4-yl]piperazin-1-yl]methyl]morpholin-4-yl]quinoline-8-carbonitrile], the IC50 turned out to be 4 nM. The result for `CO[C@H]1CN(c2nc(C)cc(N3CCN(C[C@H]4CN(c5ccc(C#N)c6ncccc56)C[C@@H](C)O4)CC3)n2)C[C@H]1N` [Example 60, 5-[(2R,6S)-2-methyl-6-[[4-[6-methyl-2-[cis-3-amino-4-methoxy-pyrrolidin-1-yl]pyrimidin-4-yl]piperazin-1-yl]methyl]morpholin-4-yl]quinoline-8-carbonitrile] reads 3 nM; that for `Cc1cc(N2CCN(C[C@H]3CN(c4ccc(C#N)c5ncccc45)C[C@@H](C)O3)CC2)nc(N2CC3(CNCCO3)C2)n1` [Example 61, 5-[(2R,6S)-2-methyl-6-[[4-[6-methyl-2-(5-oxa-2,8-diazaspiro[3.5]nonan-2-yl)pyrimidin-4-yl]piperazin-1-yl]methyl]morpholin-4-yl]quinoline-8-carbonitrile], 3 nM; that for `C[C@@H]1CN(c2ccc(C#N)c3ncccc23)C[C@H](CN2CCN(c3cccc(C4CNCCO4)c3)CC2)O1` (stereo partly drawn) [Example 62, 5-[(2R,6S)-2-methyl-6-[[4-(3-morpholin-2-ylphenyl)piperazin-1-yl]methyl]-morpholin-4-yl]quinoline-8-carbonitrile], 14 nM.

`Cc1cc(N2CCN(C[C@H]3CN(c4ccc(C#N)c5ncccc45)C[C@@H](C)O3)CC2)nc(N2CC(N)C(F)(F)C2)n1` (stereo partly drawn) [Example 63, 5-[(2S,6R)-2-[[4-[2-(4-amino-3,3-difluoro-pyrrolidin-1-yl)-6-methyl-pyrimidin-4-yl]piperazin-1-yl]methyl]-6-methyl-morpholin-4-yl]quinoline-8-carbonitrile]: the IC50 was 13 nM. As for `Cc1cc(N2CCN(C[C@H]3CN(c4ccc(C#N)c5nccnc45)C[C@@H](C)O3)CC2)nc(N2CCNCC2)n1` [Example 64, 8-[(2R,6S)-2-methyl-6-[[4-(6-methyl-2-piperazin-1-yl-pyrimidin-4-yl)piperazin-1-yl]methyl]morpholin-4-yl]quinoxaline-5-carbonitrile], the figure is 2 nM; as for `Cc1cc(N2CCN(C[C@H]3CN(c4ccc(C(F)(F)F)c5nccnc45)C[C@@H](C)O3)CC2)nc(N2CCNCC2)n1` [Example 65, (2R,6S)-2-methyl-6-[[4-(6-methyl-2-piperazin-1-yl-pyrimidin-4-yl)piperazin-1-yl]methyl]-4-[8-(trifluoromethyl)quinoxalin-5-yl]morpholine], 9 nM.

(Values after US20210395239A1 (Hoffmann-La Roche Inc., priority 2018, published 2021).)
